Experiment [1] deals with Mus musculus. Nature of the experiment: Antidepressant activity determined by percentage change from control after intraperitoneal administration at 100 mg/kg in mice; n = 6. In kind it is functional.
The subject of experiment [2] is Mus musculus. Nature of the experiment: Antidepressant activity determined by duration of immobility after intraperitoneal administration at 100 mg/kg in mice. In kind it is functional.

The structures appear in SMILES notation. Several values for one entry are separate records, joined by “and”; a condition that tells them apart may be missing. Equal values may be shown once.

On to `CN(C)c1ccc(C2CC(c3ccccc3)=NN2c2ccccc2)cc1` (stereo unspecified), for which the figures for the Activity with Mus musculus [1] and with Mus musculus [2] were -59.25% and 22.95 s, respectively. `Oc1ccc2ccccc2c1C1=NN(c2ccccc2)C(c2ccccc2)C1` (stereo unspecified): the figures for the Activity with Mus musculus [1] and in the experiment with Mus musculus [2] were -10.63% and 50.33 s, respectively. On the same counts, the results for `COc1cc(C2CC(c3c(O)ccc4ccccc34)=NN2c2ccccc2)cc(OC)c1OC` (stereo unspecified) are -12.53% and 49.26 s. Take `Oc1ccc(C2=NN(c3ccccc3)C(c3cccc(Br)c3)C2)cc1` (stereo unspecified): the Activity is reported as -42.18% with Mus musculus [1] and 32.46 s in the experiment with Mus musculus [2]. As to `CN(C)c1ccc(C2CC(c3ccccc3O)=NN2c2ccccc2)cc1` (stereo unspecified), the Activity in the experiment on Mus musculus [1] is reported as -36.34%; with Mus musculus [2] it was 35.85 s. For the compound `Cc1ccc(C2=NN(c3ccccc3)C(c3ccc(N(C)C)cc3)C2)cc1` (stereo unspecified), the Activity is -10.95% in the experiment on Mus musculus [1] and 50.15 s with Mus musculus [2].

In the case of `Oc1ccc2ccccc2c1C1=NN(c2ccccc2)C(c2ccc(Br)cc2)C1` (stereo unspecified), the Activity in the experiment on Mus musculus [1] is reported as -54.1%; in the experiment on Mus musculus [2], 25.4 s. On the same counts, the results for `Oc1ccc2ccccc2c1C1=NN(c2ccccc2)C(c2ccc(Cl)cc2)C1` (stereo unspecified) are -17.82% and 46.28 s. On the same counts, the results for `COc1ccc(C2CC(c3c(O)ccc4ccccc34)=NN2c2ccccc2)cc1` (stereo unspecified) are -9.83% and 50.78 s. Take `CN(C)c1ccc(C2CC(c3ccc(Br)cc3)=NN2c2ccccc2)cc1` (stereo unspecified): the Activity in the experiment on Mus musculus [1] is given as -25.63%; in the experiment with Mus musculus [2], 41.88 s. With `CN(C)CCCN1c2ccccc2CCc2ccc(Cl)cc21` [CLOMIPRAMINE], in the experiment on Mus musculus [2] (100 mg/kg), the Activity was 33.81 s and 18.68 s.

Values taken from ChEMBL document CHEMBL1141035, “Synthesis and antidepressant activity of some 1,3,5-triphenyl-2-pyrazolines and 3-(2''-hydroxy naphthalen-1''-yl)-1,5-diphenyl-2-pyrazolines” (2005).
